“Also recorded” adds a separate entry of the source. Ends that are not written are not given here.

Assay [1] has as its system microorganisms. Put plainly: Peptide activities: binding, antimicrobial, growth or phenotype altering (Table 8). From the text: In certain embodiments, peptides described herein can have multiple activities. Thus for example, a peptide can have both binding/targeting activity and antimicrobial activity. Such peptides can be used, e.g., in a chimeric construct, for any or all of these properties. Thus, for example, a peptide designated “B” in Table 8 can be used as a targeting peptide. If it is also designated G or M it can also be used for antimicrobial activity.

Assay [2] has as its system microorganisms. Nature of the assay: Morphology, biofilm and growth disruption by peptides (Table 5). Format: cell-based. Further details: key: A: Peptide aggregates; B: Less hyphal formation; Clumps; Diffuse clumps and small polyps; F: Diffuse growth; H: Thin; I: Growth inhibition; Microcolony formation; Rippled; Small polyps; Thick; W: Halo formation on top, microlonies on bottom. From the text: In certain embodiments peptides that induce alterations in phenotype or other biological activities can also be used as antimicrobial effector moieties.

The subject of another assay is bacteria. Nature of the assay: Binding of targeting peptides to microorganisms (Table 3). The conditions noted are these: peptide binding in aqueous buffers that varied depending on peptide solubility; preferably 1x PBS.

PF-519 (YLVYSGVLATAAAF-NH2): the Activities result in the assay on microorganisms [1] is on record as “G B”. The “Organism, effect (morphology, biofilm and growth disruption)” value is “E. coli (R)” in the assay with microorganisms [2] (E. coli), “E. faecalis (C)” in the assay on microorganisms [2] (E. faecalis), “MRSA (C)” with microorganisms [2] (MRSA) and “S. pneumoniae (S)” in the assay with microorganisms [2] (S. pneumoniae). Also, the “Target(s) (microorganisms bound by the targeting peptide)” value in the assay with bacteria is “M. luteus; also recorded: E. faecalis; also recorded: C. jeikeium”.

Turning to PF-528 (LVDVVVLIRRHLPKSCS-NH2), in the assay with microorganisms [1], the Activities result is listed as “G B”. Besides, the “Organism, effect (morphology, biofilm and growth disruption)” value in the assay on microorganisms [2] (C. albicans) is “C. albicans (C)”; in the assay with microorganisms [2] (E. coli) it was “E. coli (H)”; with microorganisms [2] (MRSA) it was “MRSA (H)”; with microorganisms [2] (S. epidermidis), “S. epidermidis (H)”; in the assay on microorganisms [2] (S. pneumoniae) it was “S. pneumoniae (R)”. For the same substance, the “Target(s) (microorganisms bound by the targeting peptide)” value in the assay with bacteria is “S. epidermidis and P. aeruginosa and C. albicans and MRSA and S. pneumoniae and E. faecalis”.

For the substance “PF-540 (KSILILIKVIFIGQTTIIL; Peptide with targeting and/or antimicrobial activity)”, the Activities result in the assay on microorganisms [1] is given as “G B”. The “Organism, effect (morphology, biofilm and growth disruption)” value in the assay with microorganisms [2] (E. coli) is recorded as “E. coli (R)”; in the assay on microorganisms [2] (MRSA), “MRSA (H)”; with microorganisms [2] (S. epidermidis), “S. epidermidis (H)”; in the assay on microorganisms [2] (S. pneumoniae) it was “S. pneumoniae (R)”. Moreover, the “Target(s) (microorganisms bound by the targeting peptide)” value in the assay on bacteria is “C. albicans”.

As to “PF-542 (KKDNPSLNDQDKNAVLNLLALAK; Peptide with targeting and/or antimicrobial activity)”, the Activities entry in the assay with microorganisms [1] is on record as “G B”. In addition, the “Organism, effect (morphology, biofilm and growth disruption)” value in the assay with microorganisms [2] (S. pneumoniae) is reported as “S. pneumoniae (H)”. Further, in the assay with bacteria, the “Target(s) (microorganisms bound by the targeting peptide)” value was “C. jeikeium”.

As for “PF-546 (PIIAPTIKTQIQ; Peptide with targeting and/or antimicrobial activity)”, the Activities entry with microorganisms [1] is listed as “G B”. Also, the “Organism, effect (morphology, biofilm and growth disruption)” value in the assay with microorganisms [2] (C. jeikeium) was “C. jeikeium (D)”; in the assay with microorganisms [2] (E. coli), “E. coli (R)”; with microorganisms [2] (E. faecalis), “E. faecalis (D)”; in the assay on microorganisms [2] (MRSA), “MRSA (D)”; in the assay with microorganisms [2] (S. epidermidis), “S. epidermidis (D)”; in the assay on microorganisms [2] (S. pneumoniae), “S. pneumoniae (D)”. Further, in the assay on bacteria, the “Target(s) (microorganisms bound by the targeting peptide)” value is “S. epidermidis; also recorded: E. coli; also recorded: C. albicans; also recorded: S. pneumoniae; also recorded: E. faecalis; also recorded: C. jeikeium”.

Take “PF-549 (TGIGPIARPIEHGLDS; Peptide with targeting and/or antimicrobial activity)”: the Activities result with microorganisms [1] is “G B”. Further, the “Organism, effect (morphology, biofilm and growth disruption)” value with microorganisms [2] (B. subtilis) is on record as “B. subtilis (D)”; with microorganisms [2] (MRSA), “MRSA (C)”. The “Target(s) (microorganisms bound by the targeting peptide)” value with bacteria was “E. coli; also recorded: C. albicans; also recorded: S. pneumoniae; also recorded: C. jeikeium”.

“PF-550 (STENGWQEFESYADVGVDPRRYVPL; Peptide with targeting and/or antimicrobial activity)”: the Activities entry with microorganisms [1] was “G B”. For the same substance, the “Organism, effect (morphology, biofilm and growth disruption)” value in the assay with microorganisms [2] (B. subtilis) is given as “B. subtilis (D)”. The “Target(s) (microorganisms bound by the targeting peptide)” value in the assay on bacteria is “S. pneumoniae”.

With “PF-551 (QVKEKRREIELQFRDAEKKLEASVQAE; Peptide with targeting and/or antimicrobial activity)”, the Activities entry with microorganisms [1] is “G B”. The “Organism, effect (morphology, biofilm and growth disruption)” value with microorganisms [2] (MRSA) is listed as “MRSA (C)”. Moreover, the “Target(s) (microorganisms bound by the targeting peptide)” value in the assay with bacteria was “S. pneumoniae”.

Take “PF-552 (ELDKADAALGPAKNLAPLDVINRS; Peptide with targeting and/or antimicrobial activity)”: the Activities entry with microorganisms [1] was “G B”. Further, the “Organism, effect (morphology, biofilm and growth disruption)” value with microorganisms [2] (B. subtilis) is “B. subtilis (D)”. Besides, the “Target(s) (microorganisms bound by the targeting peptide)” value in the assay on bacteria is reported as “S. pneumoniae”.

For “PF-553 (LTIVGNALQQKNQKLLLNQKKITSLG; Peptide with targeting and/or antimicrobial activity)”, the Activities entry with microorganisms [1] is recorded as “G B”. Further, the “Organism, effect (morphology, biofilm and growth disruption)” value in the assay with microorganisms [2] (B. subtilis) is recorded as “B. subtilis (D)”; with microorganisms [2] (C. jeikeium), “C. jeikeium (R)”; in the assay with microorganisms [2] (MRSA), “MRSA (M)”; with microorganisms [2] (S. pneumoniae) it was “S. pneumoniae (R)”. Also, the “Target(s) (microorganisms bound by the targeting peptide)” value in the assay with bacteria was “S. epidermidis and E. coli and P. aeruginosa and C. albicans and MRSA and S. pneumoniae and C. jeikeium”.

Take “PF-554 (AKNFLTRTAEEIGEQAVREGNINGP; Peptide with targeting and/or antimicrobial activity)”: in the assay on microorganisms [1], the Activities entry is recorded as “G B”. In addition, the “Organism, effect (morphology, biofilm and growth disruption)” value in the assay on microorganisms [2] (B. subtilis) is “B. subtilis (D)”. Moreover, the “Target(s) (microorganisms bound by the targeting peptide)” value with bacteria is “S. pneumoniae”.

As for “PF-557 (AANKAREQAAAEAKRKAEEQAR; Peptide with targeting and/or antimicrobial activity)”, the Activities result in the assay with microorganisms [1] is given as “G B”. Besides, the “Organism, effect (morphology, biofilm and growth disruption)” value in the assay with microorganisms [2] (B. subtilis) is recorded as “B. subtilis (D)”. In addition, the “Target(s) (microorganisms bound by the targeting peptide)” value in the assay on bacteria is given as “S. pneumoniae”.

On to “PF-558 (ADAPPPLIVRYS; Peptide with targeting and/or antimicrobial activity)”, for which, in the assay with microorganisms [1], the Activities result is listed as “G B”. Besides, the “Organism, effect (morphology, biofilm and growth disruption)” value was “B. subtilis (D)” in the assay on microorganisms [2] (B. subtilis); “C. jejuni (H)” in the assay with microorganisms [2] (C. jejuni); “MRSA (C)” with microorganisms [2] (MRSA); “S. epidermidis (M)” in the assay with microorganisms [2] (S. epidermidis); “S. pneumoniae (R)” in the assay on microorganisms [2] (S. pneumoniae). Moreover, the “Target(s) (microorganisms bound by the targeting peptide)” value with bacteria is listed as “S. epidermidis; also recorded: E. coli; also recorded: C. albicans; also recorded: C. jeikeium; also recorded: C. jejuni”.

With “PF-559 (SRPGKPGGVSIDVSRDRQDILSNYP; Peptide with targeting and/or antimicrobial activity)”, the Activities entry in the assay with microorganisms [1] is reported as “G B”. Further, the “Organism, effect (morphology, biofilm and growth disruption)” value in the assay with microorganisms [2] (B. subtilis) is on record as “B. subtilis (C)”; in the assay with microorganisms [2] (C. jejuni) it was “C. jejuni (A)”. Moreover, the “Target(s) (microorganisms bound by the targeting peptide)” value with bacteria is reported as “S. epidermidis; also recorded: M. luteus; also recorded: C. albicans; also recorded: C. jeikeium; also recorded: C. jejuni”.

In the case of “PF-560 (FGNPFRGFTLAMEADFKKRK; Peptide with targeting and/or antimicrobial activity)”, in the assay with microorganisms [1], the Activities result is given as “G B”. Also, the “Organism, effect (morphology, biofilm and growth disruption)” value in the assay with microorganisms [2] (B. subtilis) was “B. subtilis (D)”; in the assay on microorganisms [2] (C. jejuni), “C. jejuni (A)”; with microorganisms [2] (MRSA), “MRSA (C)”; in the assay with microorganisms [2] (S. pneumoniae), “S. pneumoniae (R)”. Besides, the “Target(s) (microorganisms bound by the targeting peptide)” value in the assay with bacteria is listed as “S. epidermidis; also recorded: M. luteus; also recorded: E. coli; also recorded: S. pneumoniae; also recorded: C. jeikeium; also recorded: C. jejuni”.

For “PF-563 (RPELDNELDVVQNSASLDKLQASYN; Peptide with targeting and/or antimicrobial activity)”, the Activities result in the assay with microorganisms [1] is on record as “G B”. Also, the “Organism, effect (morphology, biofilm and growth disruption)” value in the assay with microorganisms [2] (B. subtilis) is “B. subtilis (D)”; in the assay with microorganisms [2] (C. jejuni), “C. jejuni (H)”; in the assay on microorganisms [2] (S. pneumoniae), “S. pneumoniae (H)”. The “Target(s) (microorganisms bound by the targeting peptide)” value in the assay on bacteria is “S. epidermidis; also recorded: M. luteus; also recorded: C. jeikeium”.

Take “PF-564 (TIILNDQINSLQERLNKLNAETDRR; Peptide with targeting and/or antimicrobial activity)”: the Activities result in the assay on microorganisms [1] was “G B”. For the same substance, the “Organism, effect (morphology, biofilm and growth disruption)” value is “B. subtilis (D)” in the assay with microorganisms [2] (B. subtilis), “C. jeikeium (R)” in the assay on microorganisms [2] (C. jeikeium), “C. jejuni (R)” with microorganisms [2] (C. jejuni) and “MRSA (C)” in the assay with microorganisms [2] (MRSA). In addition, the “Target(s) (microorganisms bound by the targeting peptide)” value in the assay with bacteria is recorded as “S. epidermidis; also recorded: C. albicans; also recorded: S. pneumoniae; also recorded: C. jeikeium”.

“PF-566 (EAQQVTQQLGADFNAITTPTATKV; Peptide with targeting and/or antimicrobial activity)”: in the assay with microorganisms [1], the Activities result is on record as “G B”. Moreover, the “Organism, effect (morphology, biofilm and growth disruption)” value in the assay with microorganisms [2] (B. subtilis) is listed as “B. subtilis (C)”; in the assay with microorganisms [2] (C. jeikeium), “C. jeikeium (C)”; in the assay with microorganisms [2] (C. jejuni) it was “C. jejuni (D)”; in the assay with microorganisms [2] (M. luteus) it was “M. luteus (D)”; in the assay with microorganisms [2] (MRSA), “MRSA (M)”; with microorganisms [2] (S. pneumoniae), “S. pneumoniae (D)”. The “Target(s) (microorganisms bound by the targeting peptide)” value in the assay with bacteria is listed as “P. mirabilis; also recorded: S. pneumoniae”.

For “PF-567 (QQRVKAVDASLSQVSTQVSGAVASA; Peptide with targeting and/or antimicrobial activity)”, the Activities entry in the assay on microorganisms [1] is recorded as “G B”. The “Organism, effect (morphology, biofilm and growth disruption)” value in the assay on microorganisms [2] (C. jeikeium) is “C. jeikeium (C)”; in the assay on microorganisms [2] (C. jejuni) it was “C. jejuni (D)”; with microorganisms [2] (M. luteus) it was “M. luteus (C)”; in the assay with microorganisms [2] (MRSA), “MRSA (D)”; in the assay with microorganisms [2] (S. pneumoniae) it was “S. pneumoniae (D)”. In addition, in the assay with bacteria, the “Target(s) (microorganisms bound by the targeting peptide)” value is “S. epidermidis and P. aeruginosa and C. albicans and MRSA and S. pneumoniae and C. jeikeium”.

The record behind these values is patent US9597407B2, “Targeted antimicrobial moieties” (C3 Jian, Inc., priority 2009, dated 2017).
